Measured values as given in article PMC13334477 (RSC Medicinal Chemistry, 2026).
“And” between values parts separate entries of the source, which are not always exact repeats. Equal values may be shown once.

What was measured:
[1] = Cell viability assay (CellTiter 96 AQueous One); assay type: cell-based; conditions: human, at 1.56 μM
[2] = system: HIVpro2-FT (hybrid DNA G4); experiment: FRET melting assay, HIVpro2-FT; assay type: binding, HIV-1; conditions: ligand 1 μM, DNA 0.2 μM
Procedure: Doubly labelled oligonucleotides with fluorescein and TAMRA were purchased lyophilized and RP-cartridge purified from Eurogentec (Kanaka Eurogentec, Seraing, Belgium). FRET melting experiments were run on Stratagene Mx3005P real-time PCR equipment in 96-well plates on the DNA sequences listed Table 1. Experiments were performed in 10 mM lithium cacodylate buffer (pH 7.2) and 10 mM KCl and 90 mM LiCl as previously described.[45,46] The DNA concentration was 0.2 μM. The stabilization (ΔT1/2) induced by compounds was calculated as the difference between the Tm of the nucleic acid alone and that measured with a ligand concentration of 1 μM. Data are presented as averages of three independent measurements, each conducted in duplicate (λexc = 492 nm, λem = 516 nm, T interval = 25–95 °C, ramp: 25 °C for 5 min, then 1 °C min^−1, measurements every 1 °C, 8× magnification of the fluorescence signal). The G4 selectivity of the ligands with respect to the duplex was evaluated by determining the Tm values in the presence of 0, 3 or 10 μM of the duplex competitor ds26.
In this assay, we performed thermal denaturation experiments by heating and recording the fluorescence of DNA oligonucleotides doubly labelled with fluorescein and TAMRA fluorophores (Fig. 3 and S7). Ligand binding to the G4 stabilises the structure, resulting in an increase in the half-dissociation temperature of the structure (ΔT1/2). As a first approximation, the higher the ΔT1/2 (ΔT1/2 higher), the higher the affinity of the ligand for the target.[45]
The fluorescently labeled oligonucleotides were dissolved at a concentration of 0.2 μM in 10 mM lithium cacodylate buffer (pH 7.2) with 10 mM KCl and 90 mM LiCl. […] E) Radar plot representation that summarizes the FRET-melting results (ΔT1/2 (°C)) for each ligand in the presence of HIVpro1-FT (green), HIVpro2-FT (grey), LTR4-FT (bleu), and Htel-FT (red). Data are the results of at least three independent experiments in which each data point was performed in duplicate.

[3] = system: Htel (DNA, G4) AGGGTTAGGGTTAGGGTTAGGG; experiment: native ESI-MS; conditions: 100 mM ammonium acetate (NH4+), no K+; apparent, site 1 of 2; 10 μM DNA, 20 μM ligand, 4 °C incubation
HIV-1 = conditions: at 1.56 μM
[4] = system: G4T4G4 (DNA, G4) GGGGTTTTGGGG; experiment: native ESI-MS; conditions: 100 mM ammonium acetate (NH4+), no K+; apparent, site 1 of 2; 10 μM DNA, 20 μM ligand, 4 °C incubation

COc1ccc2c(ccc3c2cc2c4ccc(OC)cc4ccc2[n+]3-c2ccc([N+](=O)[O-])cc2)c1 [DBA4]
viability at 24 h, 1.56 µM [1]: 100% | ΔT1/2 HIVpro2 ([2]; +10µM ds26): 3.0±0.8 °C | ΔT1/2 HIVpro2 ([2]; No ds26): 3.8±0.3 °C and 3.8 °C | Kd1 [3]: 11.21 µM | reduction of viral infectivity (HIV-1): approximately 20%

c1ccc(-[n+]2c3ccc4ccccc4c3cc3c4ccccc4ccc32)cc1 [DBA5]
viability at 24 h, 1.56 µM [1]: 100% | ΔT1/2 HIVpro2 ([2]; +10µM ds26): 1.7±0.9 °C | ΔT1/2 HIVpro2 ([2]; No ds26): 1.9±0.1 °C | Kd1 [3]: 14.47 µM | reduction of viral infectivity (HIV-1): ~40%

COc1ccc2c(ccc3c2cc2c4ccc(OC)cc4ccc2[n+]3-c2ccccc2)c1 [DBA1]
ΔT1/2 HIVpro2 ([2]; +10µM ds26): 3.3±0.4 °C | ΔT1/2 HIVpro2 ([2]; No ds26): 4.2±1.4 °C

COC(=O)c1ccc(-[n+]2c3ccc4cc(OC)ccc4c3cc3c4ccc(OC)cc4ccc32)cc1 [DBA2]
ΔT1/2 HIVpro2 ([2]; +10µM ds26): 2.0±0.4 °C | ΔT1/2 HIVpro2 ([2]; No ds26): 2.1±0.2 °C and 2.1 °C

COc1ccc(-[n+]2c3ccc4cc(OC)ccc4c3cc3c4ccc(OC)cc4ccc32)cc1 [DBA3]
ΔT1/2 HIVpro2 ([2]; +10µM ds26): 3.8±0.6 °C | ΔT1/2 HIVpro2 ([2]; No ds26): 3.5±0.2 °C and 3.5 °C | Kd1 [4]: 36.88 µM
